This test addresses T1, HCV-NS5b (Hepatitis C virus genotype 1b, UniProt Q9WMX2).
T1 construct: (His)6 (C); made in house; host or cells: XL-1 cells (E. coli), IPTG-inducible plasmid
Put plainly: HCV-NS5b enzyme assay using homopolymer substrate. It counts as biochemical. From the text:
The coding sequence of NS5b protein was cloned by PCR from pFKI389luc/NS3-3′/ET as described by Lohmann, V., et al. (1999) Science 285, 110-113 using the primers shown on page 266 of WO 2005/012288
The cloned fragment is missing the C terminus 21 amino acid residues. The cloned fragment was inserted into an IPTG-inducible (isopropyl-β-D-thiogalactopyranoside) expression plasmid that provides an epitope tag (His)6 at the carboxy terminus of the protein.
The recombinant enzyme was expressed in XL-1 cells and after induction of expression, the protein was purified using affinity chromatography on a nickel-NTA (nitrilotriacetic acid) column. Storage condition was 10 mM Tris-HCl pH 7.5, 50 mM NaCl, 0.1 mM EDTA (ethylenediaminetetraacetic acid), 1 mM DTT (dithiothreotol), 20% glycerol at −20° C.
The polymerase activity was assayed by measuring incorporation of radiolabeled UTP into a RNA product using a biotinylated, homopolymeric template. The template was formed by annealing adenosine homopolymer to uridine 20-mer capped with a 5′-biotin group (biotin-U^20) in the ratio of 1:4. Typically, the assay mixture (50 μL) contained 25 mM Tris-HCl (pH 7.5), 40 mM KCl, 0.3 mM MgCl2, 0.05 mM EDTA, 0.2 unit/μL Superase RNAse Inhibitor, 5 mM DTT, 30 μM UTP (Uridine triphosphate), including [^3H]-UTP (uridine triphosphate) at 0.4 μCi/μL with final concentration of 1 μM, and 50 nM of homopolymeric template. Test compounds were initially dissolved in 100% DMSO and further diluted in aqueous buffer containing 5% DMSO. Typically, compounds were tested at concentrations between 2 nM and 50 μM. Reactions were started with addition of enzyme and allowed to continue at 30° C. for 90 minutes. Reactions were quenched with 8 μL of 100 mM EDTA and reaction mixtures (30 μL) were transferred to streptavidin-coated scintillation proximity microtiter plates (FlashPlates) and incubated at room temperature overnight. Incorporation of radioactivity was determined by scintillation counting.
Inhibitor IC50 values were determined by adding test compound as ten point, two-fold serial dilutions in 100% DMSO with a final reaction concentration of 5%. IC50 was calculated by plotting the % inhibition against compound concentration and fitting the data to a constrained four parameter sigmoidal curve, equivalent to the “four parameter logistic equation”:
Where Bottom is the minimum Y value, Top is the maximum Y value, and Hillslope is the slope of the linear portion of the semi-log curve. Top and Bottom were constrained to values of 0% and 100%, respectively. These analyses were performed using Graphpad Prism v.4.0 (Graphpad Software, Inc.) in conjunction with DS Accord for EXCEL 6.0 (Accelrys, Microsoft Corp.).
The table below lists the IC50 values of compounds determined using the homopolymer substrates.

[1] abbreviates: homopolymer substrate, [3H]-UTP incorporation, 30° C., 90 minutes, read-out: IC50.

Like-named read-outs stand apart in the source and are kept apart here.

In general, IC50 refers to the midpoint of a concentration-inhibition curve. On to `O=C(O)c1ccc2c(C3CCCCC3)c3n(c2c1)CCCn1cc(CN2CCC(F)(F)CC2)c2cccc-3c21` [Compound 127], for which, under setting [1], the 50% inhibitory concentration (IC50) was determined as 290 nM.
For the molecule `CCN(CC)Cc1cn2c3c(cccc13)-c1c(C3CCCCC3)c3ccc(C(=O)O)cc3n1CC2` [Compound 350], under setting [1], the IC50 came out at 65 nM.
Take `COc1ccc2c3c1c(CN1CCN(C)CC1)cn3CCCn1c-2c(C2CCCCC2)c2ccc(C(=O)O)cc21` [Compound 469]: the IC50 under setting [1] is 662 nM.
On to `CCN(CC)Cc1cn2c3c(cccc13)-c1c(C3CCCCC3)c3ccc(C(=O)O)cc3n1CCC2` [Compound 120], for which the IC50 under setting [1] was 85 nM.
Take `O=C(O)c1ccc2c(C3CCCCC3)c3n(c2c1)CCCn1ccc2c(F)ccc-3c21` [Compound 344]: the IC50 under setting [1] amounted to 133 nM.
On the same count and under the same terms, then `CC(C)N1CCC(c2cn3c4c(cccc24)-c2c(C4CCCCC4)c4ccc(C(=O)O)cc4n2CCC3)CC1` [Compound 400], with 250 nM; and `O=C(O)c1ccc2c(C3CCCCC3)c3n(c2c1)CCn1cc(CN2CCCCC2)c2c(F)ccc-3c21` [Compound 468], with 84 nM; and `CN1CCC(c2cn3c4c(cccc24)-c2c(C4CCCCC4)c4ccc(C(=O)O)cc4n2CCC3)CC1` [Compound 399], with 220 nM.
As to `CN(C)CCc1cn2c3c(cccc13)-c1c(C3CCCCC3)c3ccc(C(=O)O)cc3n1CCC2` [Compound 214], the IC50 under setting [1] came out at 278 nM.
In the case of `O=C(O)c1ccc2c(C3CCCCC3)c3n(c2c1)CCCn1cc(CN2CCS(=O)(=O)CC2)c2cccc-3c21` [Compound 394], under setting [1], the IC50 came to 159 nM.
`CC1CCC(NCc2cn3c4c(cccc24)-c2c(C4CCCCC4)c4ccc(C(=O)O)cc4n2CCC3)CC1` (centres unmarked) [Compound 364]: the IC50 under setting [1] was 277 nM.
Molecule `CCN(CC)C(=O)c1cn2c3c(cccc13)-c1c(C3CCCCC3)c3ccc(C(=O)O)cc3n1CCC2` [Compound 438] registered an IC50 of 69 nM.
As for `COc1ccc2c3c1c(CN1CCCCC1)cn3CCCn1c-2c(C2CCCCC2)c2ccc(C(=O)O)cc21` [Compound 461], the IC50 under setting [1] was determined as 368 nM.
As for `O=C(O)c1ccc2c(C3CCCCC3)c3n(c2c1)CCCn1cc(CNC2CCCCC2)c2cccc-3c21` [Compound 378], under setting [1], the IC50 came to 199 nM.
Turning to `O=C(O)c1ccc2c(C3CCCCC3)c3n(c2c1)CCCn1cc(C2CCN(CCO)CC2)c2cccc-3c21` [Compound 401], under setting [1], the IC50 came to 140 nM.
On to `O=C(O)c1ccc2c(C3CCCCC3)c3n(c2c1)CCCn1cc(CNC2CCCOC2)c2cccc-3c21` (centres unmarked) [Compound 370], for which the IC50 under setting [1] came out at 94 nM.
Consider `CCN(CC)CC#Cc1cn2c3c(cccc13)-c1c(C3CCCCC3)c3ccc(C(=O)O)cc3n1CCC2` [Compound 432], for which the IC50 under setting [1] amounted to 324 nM.
For `CN1CCN(Cc2cn3c4c(ccc(F)c24)-c2c(C4CCCCC4)c4ccc(C(=O)O)cc4n2CCC3)CC1` [Compound 348], the IC50 under setting [1] worked out at 143 nM.
Consider `NC1CCN2CCn3c(c(C4CCCCC4)c4ccc(C(=O)O)cc43)-c3cc(F)cc1c32` (centres unmarked) [Compound 447], for which the IC50 under setting [1] was found to be 59 nM.
Consider `O=C(O)c1ccc2c(C3CCCCC3)c3n(c2c1)CCCn1cc(CN2CCC(O)C2)c2cccc-3c21` (centres unmarked) [Compound 390], for which, under setting [1], the IC50 was determined as 237 nM.
`O=C(O)c1ccc2c(C3CCCCC3)c3n(c2c1)CCCn1c(C(=O)N2CCCCC2)cc2cccc-3c21` [Compound 406]: the IC50 under setting [1] was determined as 136 nM.
For `O=C(O)c1ccc2c(C3CCCCC3)c3n(c2c1)CCCn1cc(CN2CCCCC2)c2c(Cl)ccc-3c21` [Compound 457], the IC50 under setting [1] turned out to be 195 nM.
Same read-out and setting: then `CN1CCN(CCc2cn3c4c(cccc24)-c2c(C4CCCCC4)c4ccc(C(=O)O)cc4n2CCC3)CC1` [Compound 449], with 253 nM.
On the same count and under the same terms, the same measure for `O=C(O)c1ccc2c(C3CCCCC3)c3n(c2c1)CC1(CC1)Cn1cc(CN2CCCCC2)c2cccc-3c21` [Compound 427]: 121 nM; for `CCN(C)Cc1cn2c3c(cccc13)-c1c(C3CCCCC3)c3ccc(C(=O)OC)cc3n1CCC2` [Compound 376]: 641 nM.
For the molecule `CNCc1cn2c3c(cccc13)-c1c(C3CCCCC3)c3ccc(C(=O)O)cc3n1CCC2` [Compound 372], under setting [1], the IC50 turned out to be 106 nM.
Turning to `O=C(O)c1ccc2c(C3CCCCC3)c3n(c2c1)CCn1cc(CN2CCOCC2)c2cccc-3c21` [Compound 122], the IC50 under setting [1] was 51 nM.
As for `O=C(O)c1ccc2c(C3CCCCC3)c3n(c2c1)CCCn1c(CN2CCCCC2)cc2cccc-3c21` [Compound 414], the IC50 under setting [1] is 98 nM.
As for `O=C(O)c1ccc2c(C3CCCCC3)c3n(c2c1)CCCn1c2c(c4cccc-3c41)CN(C1CCCCC1)C2=O` [Compound 421], the IC50 under setting [1] came out at 472 nM.
`CC(=O)c1cn2c3c(cccc13)-c1c(C3CCCCC3)c3ccc(C(=O)O)cc3n1CCC2` [Compound 402] gave an IC50 of 168 nM.
On to `CCN(CC)C(=O)C(=O)c1cn2c3c(cccc13)-c1c(C3CCCCC3)c3ccc(C(=O)O)cc3n1CCC2` [Compound 453], for which the IC50 amounted to 212 nM.
For `O=C(O)c1ccc2c(C3CCCCC3)c3n(c2c1)CCCn1cc(CCN2CCCCC2)c2cccc-3c21` [Compound 204], the IC50 under setting [1] turned out to be 118 nM.
Take `NC(=O)c1cc2cccc3c2n1CCCn1c-3c(C2CCCCC2)c2ccc(C(=O)O)cc21` [Compound 413]: the IC50 under setting [1] was 105 nM.
For `CCN(CC)Cc1cn2c3c(nccc13)-c1c(C3CCCCC3)c3ccc(C(=O)O)cc3n1CCC2` [Compound 465], the 50% inhibitory concentration (IC50) under setting [1] is 1720 nM.
With `CN(C)Cc1cn2c3c(cccc13)-c1c(C3CCCCC3)c3ccc(C(=O)O)cc3n1CC2` [Compound 108], under setting [1], the IC50 was 83 nM.
For the molecule `CCC(CC)NCc1cn2c3c(cccc13)-c1c(C3CCCCC3)c3ccc(C(=O)O)cc3n1CCC2` [Compound 132], the IC50 under setting [1] is 223 nM.
As for `CN(C)CCNC(=O)c1cn2c3c(cccc13)-c1c(C3CCCCC3)c3ccc(C(=O)O)cc3n1CCC2` [Compound 440], inhibition was half-maximal at 107 nM (IC50).
As for `O=C(O)c1ccc2c(C3CCCCC3)c3n(c2c1)CCCn1cc(CN2CCCCC2)c2c(F)ccc-3c21` [Compound 345], the IC50 under setting [1] came to 127 nM.
Regarding `CCN(C)Cc1cn2c3c(ccc(F)c13)-c1c(C3CCCCC3)c3ccc(C(=O)O)cc3n1CCC2` [Compound 347], under setting [1], the IC50 came to 122 nM.
`O=C(O)c1ccc2c(C3CCCCC3)c3n(c2c1)CCCn1cc(C2CCNCC2)c2cccc-3c21` [Compound 398]: the IC50 under setting [1] worked out at 204 nM.
For the molecule `CC(C)CNCc1cn2c3c(cccc13)-c1c(C3CCCCC3)c3ccc(C(=O)O)cc3n1CCC2` [Compound 367], under setting [1], the IC50 came out at 158 nM.
`O=C(O)c1ccc2c(C3CCCCC3)c3n(c2c1)CCCn1cc(CN2CCCC(O)C2)c2cccc-3c21` (centres unmarked) [Compound 359]: the IC50 under setting [1] turned out to be 155 nM.
`O=C(O)c1ccc2c(C3CCCCC3)c3n(c2c1)CCCn1cc(C2=CCNCC2)c2cccc-3c21` [Compound 397] yielded an IC50 of 218 nM.
The molecule `O=C(O)c1ccc2c(C3CCCCC3)c3n(c2c1)CCCn1cc(C(=O)N2CCCC2)c2cccc-3c21` [Compound 437] yielded an IC50 of 151 nM.
`CNC(=O)c1cc2cccc3c2n1CCCn1c-3c(C2CCCCC2)c2ccc(C(=O)O)cc21` [Compound 417]: the IC50 under setting [1] worked out at 99 nM.
In the case of `CCN(C)Cc1cn2c3c(cccc13)-c1c(C3CCCCC3)c3ccc(C(=O)O)cc3n1CC1(CC1)C2` [Compound 428], the IC50 under setting [1] was 166 nM.
Take `O=C(O)c1ccc2c(C3CCCCC3)c3n(c2c1)CCCn1cc(CN2CCCCO2)c2cccc-3c21` [Compound 116]: the IC50 under setting [1] amounted to 138 nM.
For `O=C(O)c1ccc2c(C3CCCCC3)c3n(c2c1)CCCn1cc(CN[C@H]2CC[C@H](O)CC2)c2cccc-3c21` [Compound 384], the IC50 under setting [1] was 65 nM.
Take `O=C(NC1CC1)c1ccc2c(C3CCCCC3)c3n(c2c1)CCCn1cc(CN2CCCCC2)c2cccc-3c21` [Compound 374]: the IC50 under setting [1] amounted to 365 nM.
For the molecule `O=C(O)c1ccc2c(C3CCCCC3)c3n(c2c1)CCn1cc(CCN2CCCCC2)c2cccc-3c21` [Compound 349], the IC50 under setting [1] came out at 98 nM.
On to `CCN(CC)Cc1cn2c3c(ccc(F)c13)-c1c(C3CCCCC3)c3ccc(C(=O)O)cc3n1CCC2` [Compound 346], for which the IC50 under setting [1] was found to be 119 nM.
Take `O=C(O)c1ccc2c(C3CCCCC3)c3n(c2c1)CCCCn1cc(CN2CCCCC2)c2cccc-3c21` [Compound 105]: the IC50 under setting [1] was 131 nM.
With `O=C(O)c1ccc2c(C3CCCCC3)c3n(c2c1)CCCn1cc(C(=O)C(=O)N2CCCCC2)c2cccc-3c21` [Compound 114], it took 89 nM to reach half-maximal inhibition (IC50).

(Values after patent publication US20090197856A1, “ANTIVIRAL COMPOUNDS” (Genelabs Technologies, Inc., priority 2007, published 2009).)
